Measurements reported in patent EP1664254B9, “LIQUID LAUNDRY DETERGENT WITH POLYANIONIC AMMONIUM SURFACTANT” (priority 2003, dated 2005).
Read-outs that look alike come from different tables or passages of the source.

Legend:
[1] = cited from earlier work
[2] = cited from earlier work; remark: listed apart in the source
[3] = Water solubility / appearance and pH of solution on mixing, dilution and standing; format: physicochemical; settings: TEPA 2.0 g in water 94.0 g
Source text: In Example 1 (within the scope of the invention), when LAS acid was neutralized with a polyamine (i.e., TEPA), it formed PAAS. As PAAS began forming, the solution became hazy. Upon further addition of the LAS acid, the hazy solution became a dispersion. Upon standing for hours, the dispersion formed a layer of sediment at the bottom of the beaker. Even a very diluted formulation (such as below 0.1%) was hazy.
The solution was clear at the all time over the entire pH range, leading to the conclusion that Na-LAS was fully ionized or disassociated.
Sodium xylenesulfonate was added to an aqueous PAAS dispersion to attempt to solubilize PAAS by ion-exchange and/or hydrotrope mechanism.
Example 1 was repeated, except that fatty acid was used in place of LAS acid. […]
This example investigated the solubilization of PAAS in water, with the aid of a solubiliser. A dispersion of PAAS (with LAS and fatty acid as conjugated acid) was mixed with Na-LES solution (59.5% Na-LES, 10% propylene glycol, 6.5% ethanol, and balance of water). […]

[4] = from CRC Handbook of Chemistry and Physics, 83rd Edition
[5] = * from Huntsman Technical Bulletin "Amine applications and properties data applications"

| Compound | pKa1 [1, 4] | pKa2 [1, 4] | further results |
| --- | --- | --- | --- |
| CC(N)(O)CN (centres unmarked) [1,2-diamino-2-propanol] | 9.69 | 7.93 |  |
| CC(N)CN (centres unmarked) [1,2-propanediamine] | 9.82 | 6.61 |  |
| NCCCN [1,3-propanediamine] |  | 8.88 |  |
| NCCCCN [1,4-Butanediamine] |  |  | pKa [1, 4]: 10.80 |
| NCCCCCN [1,5-pentanediamine] | 10.25 | 9.13 |  |
| NCCCCCCN [1,6-Hexanediamine] | 11.86 | 10.76 |  |
| CC(C)(C)CN [2,2-dimethylpropylamine] |  |  | pKa [1, 4]: 10.15 |
| COCCN [2-mthyloxyethylamine] |  |  | pKa [1, 4]: 9.40 |
| NC1CCCCC1 [Cyclohexylamine] |  |  | pKa [1, 4]: 10.64 |
| NCCN [Ethylenediamine (EDA), Ethylenediamine] | 9.92 | 6.82 | pKa [1, 5]: 9.90* |
| [K+].[OH-] [KOH, potassium hydroxide] |  |  | pH ([2]; 0.01 N): 12.0; pH ([2]; 1.0 N aqueous solutions): 14.0 |
| CNO [Methylhydroxylamine] |  |  | pKa [1, 4]: 12.50 |
| CN(C)CCN(C)C [N,N,N',N'-Tetramethyl1,2-ethanediamine] | 10.40 | 8.26 |  |
| [Na+].[OH-] [NaOH, sodium hydroxide] |  |  | pH ([2]; 0.01 N): 12.0; pH ([2]; 1.0 N aqueous solutions): 14.0 |
| NCCNCCNCCNCCN [TEPA, Tetraethylenepentamine] |  |  | Observations [3]: Clear |
| NCCNCCNCCN [Triethylenetetramine (TETA), Triethylenetetramine] |  |  | pKa [1, 5]: 9.80* |
| ethoxide CH3CH2O^- |  |  | pKa ([1]; according to McMurry, Organic Chemistry, p. 45, 1984): 16 |
